Results reported in ChEMBL document CHEMBL6087458, “The Discovery of a Novel AXL/Triple Angiokinase Inhibitor Based on 6-Chloro-Substituted Indolinone and Side Chain Methyl Substitution Inhibiting Pancreatic Cancer Growth and Metastasis” (J Med Chem, 2025).
Active and inactive are the calls of the source. The rule behind the calls is not given here.

Key:
A549 = assay: cells; conditions: Homo sapiens, A549, 72 h
Description: Antiproliferative activity against human A549 cells assessed as cell viability incubated for 72 hrs by MTT assay

BXPC-3 [1] = assay: Down regulation of Ki67 expression in human BXPC-3 cells by immunofluorescence assay; type: functional, cell-based
[2] = target: Signal transducer and activator of transcription 3 (Homo sapiens) (UniProt P40763); assay: Inhibition of STAT3 phosphorylation in human BXPC-3 cells incubated for 24 to 72 hrs by Western blot analysis; type: cell-based; conditions: dose <= 5.0 µM, time 24-72 hrs
NIH3T3 = assay: Anti-fibrotic activity in mouse NIH3T3 cells assessed as reduction in fibronectin expression incubated for 48 hrs by Western blot analysis; type: functional, cell-based
PC-9 = assay: cells; conditions: Homo sapiens, PC-9, 72 h
Description: Antiproliferative activity against human PC-9 cells assessed as cell viability incubated for 72 hrs by MTT assay

HUVEC [3] = assay: Inhibition of cell migration in human HUVEC cells assessed as decrease in migrating cells at 0.5 uM incubated for 24 hrs by wound healing assay; type: functional, cell-based
A549/TR = assay: cells; conditions: Homo sapiens, 72 h
Description: Antiproliferative activity against human A549/Taxol cells assessed as cell viability incubated for 72 hrs by MTT assay

[4] = Cytotoxicity against human HaCaT cells assessed as inhibition of cell growth; type: toxicity, cell-based
BXPC-3 [5] = assay: Effect on N-cadherin expression in TGF-beta induced human BXPC-3 cells at 0.1 to 0.5 uM incubated for 24 hrs by immunofluorescence assay; type: functional, cell-based; conditions: dose 0.1-0.5 µM
BXPC-3 [6] = assay: Inhibition of colony formation in human BXPC-3 cells at 0.5 uM incubated for 72 hrs; type: functional, cell-based
BXPC-3 [7] = assay: Inhibition of cell migration in human BXPC-3 cells assessed as decrease in cell migration incubated for 24 hrs by wound healing assay; type: functional, cell-based
[8] = Cytotoxicity against human HEK293 cells assessed as inhibition of cell growth; type: toxicity, cell-based
[9] = Toxicity in mouse implanted with human BXPC-3 cells assessed as mortality at 25 to 50 mg/kg, po measured on day 11; type: organism-based; conditions: in vivo, 264 h, dose 25-50 mg/kg, time 11 day
[10] = Half life in Sprague-Dawley rat at 50 mg/kg, po; type: ADME, organism-based; conditions: in vivo
[11] = test system: Osimertinib-resistant NCI-H1975 cell; assay: cells; conditions: Homo sapiens, 72 h
Mitochondrial membrane [12] = assay: Induction of mitochondrial membrane potential in mouse NIH/3T3 cells assessed as decrease in red fluorescence intensity incubated for 48 hrs by JC-1 staining based flow cytometry; type: cell membranes
[13] = Toxicity in mouse implanted with human BXPC-3 cells assessed as spleen damage at 50 mg/kg, po by H and E staining based analysis; type: organism-based; conditions: in vivo
MDA-MB-231 [14] = assay: Induction of apoptosis in human MDA-MB-231 cells assessed as increase in BAX expression at 0.1 to 1 uM incubated for 24 hrs by Western blot analysis; type: functional, cell-based; conditions: dose 0.1-1 µM
MKN-45 = assay: cells; conditions: Homo sapiens, MKN-45, 72 h
Description: Antiproliferative activity against human MKN-45 cells assessed as cell viability incubated for 72 hrs by MTT assay

MDA-MB-231 [15] = assay: Induction of apoptosis in human MDA-MB-231 cells assessed as decrease in Bcl-2 expression at 0.1 to 1 uM incubated for 24 hrs by Western blot analysis; type: functional, cell-based; conditions: dose 0.1-1 µM
[16] = target: Serine/threonine-protein kinase SIK2 (Homo sapiens) (UniProt Q9H0K1); assay: Inhibition of QIK (unknown origin) by envision reader analysis
MDA-MB-231 [17] = assay: Inhibition of colony formation in human MDA-MB-231 cells at 0.5 uM incubated for 72 hrs; type: functional, cell-based
cells = conditions: Homo sapiens, CDDP-resistant A549 cell, 72 h
Description: Antiproliferative activity against human CDDP-resistant A549 cell assessed as cell viability incubated for 72 hrs by MTT assay

[18] = Antiproliferative activity against human HUVEC cells cultured as 3D tumor spheroids assessed as cell viability incubated for 72 hrs by CCK-8 assay; type: toxicity, cell-based
BXPC-3 [19] = assay: Effect on STAT3 level in human BXPC-3 cells incubated for 24 to 72 hrs by Western blot analysis; type: functional, cell-based; conditions: time 24-72 hrs
Homo sapiens = species on record: Homo sapiens; assay: Inhibition of PDGFR (unknown origin) by envision reader analysis
[20] = Cytotoxicity against human HK-2 cells assessed as inhibition of cell growth; type: toxicity, cell-based
[21] = Toxicity in mouse implanted with human BXPC-3 cells assessed as liver damage at 50 mg/kg, po by H and E staining based analysis; type: organism-based; conditions: in vivo
[22] = AUC (0 to last) in Sprague-Dawley rat at 5 mg/kg, iv; type: ADME, organism-based; conditions: Sprague-Dawley, in vivo
MDA-MB-231 [23] = assay: Inhibition of cell migration in human MDA-MB-231 cells assessed as decrease in cell migration incubated for 24 hrs by wound healing assay; type: functional, cell-based
[24] = target: Signal transducer and activator of transcription 3 (Homo sapiens) (UniProt P40763); assay: Inhibition of STAT3 phosphorylation in human MDA-MB-231 cells incubated for 24 to 72 hrs by Western blot analysis; type: cell-based; conditions: dose <= 5.0 µM, time 24-72 hrs
[25] = Toxicity in mouse implanted with human BXPC-3 cells assessed as kidney damage at 50 mg/kg, po by H and E staining based analysis; type: organism-based; conditions: in vivo
[26] = Toxicity in mouse implanted with human BXPC-3 cells assessed as heart damage at 50 mg/kg, po by H and E staining based analysis; type: organism-based; conditions: in vivo
[27] = target: Tyrosine-protein kinase ABL1 (Homo sapiens) (UniProt P00519); assay: Inhibition of ABL1 (unknown origin) by envision reader analysis
Mitochondrial membrane [28] = assay: Induction of mitochondrial membrane potential depolarization in human BXPC-3 cells at 0.2 to 0.5 uM incubated for 24 hrs by JC-1 staining based flow cytometry analysis; type: cell membranes; conditions: dose 0.2-0.5 µM
[29] = AUC (0 to last) in Sprague-Dawley rat at 50 mg/kg, po; type: ADME, organism-based; conditions: Sprague-Dawley, in vivo
HUVEC [30] = assay: Effect on VEGFR expression in HUVEC cells at 0.5 to 2 uM incubated for 24 to 72 hrs by immunofluorescence assay; type: functional, cell-based; conditions: Homo sapiens, dose 0.5-2 µM, time 24-72 hrs

Sequence of Signal transducer and activator of transcription 3 (Homo sapiens) (P40763 whole entry): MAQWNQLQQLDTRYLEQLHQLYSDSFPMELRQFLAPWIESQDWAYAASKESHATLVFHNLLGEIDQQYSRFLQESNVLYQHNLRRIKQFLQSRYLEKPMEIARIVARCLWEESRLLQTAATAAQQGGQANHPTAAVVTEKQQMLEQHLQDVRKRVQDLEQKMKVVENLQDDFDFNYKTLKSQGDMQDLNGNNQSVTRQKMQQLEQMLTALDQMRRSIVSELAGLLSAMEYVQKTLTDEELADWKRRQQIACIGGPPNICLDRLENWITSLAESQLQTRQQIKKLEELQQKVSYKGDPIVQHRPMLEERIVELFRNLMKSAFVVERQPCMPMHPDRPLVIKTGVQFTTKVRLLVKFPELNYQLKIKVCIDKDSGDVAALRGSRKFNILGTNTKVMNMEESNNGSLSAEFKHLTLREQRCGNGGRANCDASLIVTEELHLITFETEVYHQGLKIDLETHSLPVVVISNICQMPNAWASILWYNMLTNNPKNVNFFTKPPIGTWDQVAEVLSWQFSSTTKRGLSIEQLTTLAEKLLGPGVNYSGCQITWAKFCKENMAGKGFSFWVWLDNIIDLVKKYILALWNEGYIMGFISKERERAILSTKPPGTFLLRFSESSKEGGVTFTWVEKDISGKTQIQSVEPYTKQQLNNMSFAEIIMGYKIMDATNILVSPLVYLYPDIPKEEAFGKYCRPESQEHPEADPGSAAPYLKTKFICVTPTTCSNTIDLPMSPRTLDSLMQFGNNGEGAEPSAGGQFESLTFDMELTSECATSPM
Sequence of Tyrosine-protein kinase ABL1 (Homo sapiens) (P00519 whole entry): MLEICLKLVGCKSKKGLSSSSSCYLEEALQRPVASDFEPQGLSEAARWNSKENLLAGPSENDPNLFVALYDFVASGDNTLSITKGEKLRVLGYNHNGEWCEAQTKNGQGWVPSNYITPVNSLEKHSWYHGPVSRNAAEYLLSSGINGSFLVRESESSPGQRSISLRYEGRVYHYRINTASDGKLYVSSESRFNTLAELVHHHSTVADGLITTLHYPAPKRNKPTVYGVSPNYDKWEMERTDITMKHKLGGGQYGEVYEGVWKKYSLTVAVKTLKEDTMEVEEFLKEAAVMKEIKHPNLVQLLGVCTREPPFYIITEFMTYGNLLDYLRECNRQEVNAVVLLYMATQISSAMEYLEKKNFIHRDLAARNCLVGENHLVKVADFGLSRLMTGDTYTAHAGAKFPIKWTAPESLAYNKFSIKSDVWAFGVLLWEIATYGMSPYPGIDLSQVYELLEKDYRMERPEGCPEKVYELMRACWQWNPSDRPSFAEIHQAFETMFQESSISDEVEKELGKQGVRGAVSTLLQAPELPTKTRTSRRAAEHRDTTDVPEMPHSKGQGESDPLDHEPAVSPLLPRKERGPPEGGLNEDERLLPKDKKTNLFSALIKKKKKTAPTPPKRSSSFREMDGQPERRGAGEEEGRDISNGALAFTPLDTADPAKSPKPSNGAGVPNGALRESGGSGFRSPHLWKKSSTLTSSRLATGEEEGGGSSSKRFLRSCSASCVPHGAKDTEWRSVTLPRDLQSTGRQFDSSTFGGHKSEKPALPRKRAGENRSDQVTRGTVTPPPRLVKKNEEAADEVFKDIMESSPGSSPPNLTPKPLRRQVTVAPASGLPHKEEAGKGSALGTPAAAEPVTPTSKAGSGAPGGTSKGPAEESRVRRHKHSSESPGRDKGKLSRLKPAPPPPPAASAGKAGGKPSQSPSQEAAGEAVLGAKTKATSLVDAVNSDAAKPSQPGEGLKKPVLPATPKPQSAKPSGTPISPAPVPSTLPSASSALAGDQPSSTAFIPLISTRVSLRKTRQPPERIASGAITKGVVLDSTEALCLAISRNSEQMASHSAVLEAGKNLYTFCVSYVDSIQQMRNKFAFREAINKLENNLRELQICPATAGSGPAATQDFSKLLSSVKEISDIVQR
Sequence of Serine/threonine-protein kinase SIK2 (Homo sapiens) (Q9H0K1 whole entry, looked up): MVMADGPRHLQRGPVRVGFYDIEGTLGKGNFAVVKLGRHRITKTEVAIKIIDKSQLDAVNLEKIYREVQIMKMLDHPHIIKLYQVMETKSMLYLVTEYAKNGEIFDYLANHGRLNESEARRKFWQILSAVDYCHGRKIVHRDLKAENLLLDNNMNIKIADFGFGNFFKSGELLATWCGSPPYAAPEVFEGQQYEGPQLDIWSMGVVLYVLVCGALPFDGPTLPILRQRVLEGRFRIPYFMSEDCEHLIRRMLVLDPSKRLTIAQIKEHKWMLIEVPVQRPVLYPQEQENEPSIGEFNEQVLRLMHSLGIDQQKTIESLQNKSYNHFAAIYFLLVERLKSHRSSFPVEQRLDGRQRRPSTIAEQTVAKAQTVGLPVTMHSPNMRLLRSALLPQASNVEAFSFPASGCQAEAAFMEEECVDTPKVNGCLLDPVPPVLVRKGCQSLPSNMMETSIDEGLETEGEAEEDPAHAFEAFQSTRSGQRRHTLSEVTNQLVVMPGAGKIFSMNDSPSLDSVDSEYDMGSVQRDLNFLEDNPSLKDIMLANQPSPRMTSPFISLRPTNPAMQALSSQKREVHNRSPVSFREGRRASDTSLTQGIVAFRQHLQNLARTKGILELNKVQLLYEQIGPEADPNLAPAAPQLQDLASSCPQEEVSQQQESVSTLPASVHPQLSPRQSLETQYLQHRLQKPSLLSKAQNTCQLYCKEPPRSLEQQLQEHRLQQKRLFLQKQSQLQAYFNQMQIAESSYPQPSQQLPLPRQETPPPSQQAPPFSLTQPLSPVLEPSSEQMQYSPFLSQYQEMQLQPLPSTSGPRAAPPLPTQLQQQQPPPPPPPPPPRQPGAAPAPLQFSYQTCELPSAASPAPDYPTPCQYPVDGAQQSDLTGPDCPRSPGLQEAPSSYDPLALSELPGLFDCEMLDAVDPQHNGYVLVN

Q: For `CCN1CCN(C(C)C(=O)N(C)c2ccc(N/C(=C3\C(=O)Nc4cc(Cl)ccc43)c3ccccc3)cc2)CC1` (racemic), which IC50 (A549) is on record?
A: The IC50 was 0.25 µM.

Q: What about the Activity (BXPC-3 [1]) of the same compound?
A: The Activity was “Active”.

Q: And the inhibition [2]?
A: The inhibition was “Dose-dependent-effect”.

Q: What about the Activity (NIH3T3) of the same compound?
A: The Activity was “Active”.

Q: And the IC50 (PC-9)?
A: The IC50 was 5.91 µM.

Q: What about the inhibition (HUVEC [3]) of the same compound?
A: The inhibition was “Active”.

Q: What about the IC50 (A549/TR) of the same compound?
A: The IC50 was 4.77 µM.

Q: What about the IC50 [4] of the same compound?
A: Its IC50 is > 10 µM.

Q: And the Activity (BXPC-3 [5])?
A: The Activity was “Active”.

Q: And the inhibition (BXPC-3 [6])?
A: Its inhibition is “Active”.

Q: And the inhibition (BXPC-3 [7])?
A: The inhibition was “Active”.

Q: And the IC50 [8]?
A: The IC50 was > 10 µM.

Q: What about the Activity [9] of the same compound?
A: Its Activity is “Non-toxic”.

Q: And the half-life [10]?
A: Its half-life is 18.8 h.

Q: What about the IC50 [11] of the same compound?
A: Its IC50 is 1.12 µM.

Q: And the Activity (Mitochondrial membrane [12])?
A: Its Activity is “Active”.

Q: What about the Activity [13] of the same compound?
A: The Activity was “Non-toxic”.

Q: What about the Activity (MDA-MB-231 [14]) of the same compound?
A: The Activity was “Active”.

Q: And the IC50 (MKN-45)?
A: The IC50 was 1.26 µM.

Q: And the Activity (MDA-MB-231 [15])?
A: Its Activity is “Active”.

Q: And the inhibition [16]?
A: Its inhibition is “Active”.

Q: What about the inhibition (MDA-MB-231 [17]) of the same compound?
A: Its inhibition is “Active”.

Q: And the IC50 (cells)?
A: Its IC50 is 5.4 µM.

Q: And the IC50 at 72 h [18]?
A: Its IC50 at 72 h is 1.54 µM.

Q: And the Activity (BXPC-3 [19])?
A: The Activity was “Active”.

Q: And the inhibition (Homo sapiens)?
A: The inhibition was “Active”.

Q: And the IC50 [20]?
A: Its IC50 is 8.35 µM.

Q: And the Activity [21]?
A: The Activity was “Non-toxic”.

Q: What about the AUC(0-t) [22] of the same compound?
A: Its AUC(0-t) is 1.77 µg·h/mL.

Q: And the inhibition (MDA-MB-231 [23])?
A: Its inhibition is “Active”.

Q: And the inhibition [24]?
A: Its inhibition is “Dose-dependent-effect”.

Q: And the Activity [25]?
A: Its Activity is “Non-toxic”.

Q: What about the Activity [26] of the same compound?
A: The Activity was “Non-toxic”.

Q: And the inhibition [27]?
A: The inhibition was “Active”.

Q: What about the Activity (Mitochondrial membrane [28]) of the same compound?
A: The Activity was “Active”.

Q: What about the AUC(0-t) [29] of the same compound?
A: Its AUC(0-t) is 1.15 µg·h/mL.

Q: What about the Activity (HUVEC [30]) of the same compound?
A: Its Activity is “Active”.
